# Reference: US20130095189A1, “COMPOSITION AND METHOD OF PHYTONUTRIENTS FOR METABOLIC PROGRAMMING EFFECTS” (priority 2011, published 2013)
# “Also recorded” adds a separate entry of the source.
# Experiments:
# Format in all cases: cell-based, human
# GST mRNA = GST mRNA expression by TaqMan real-time PCR in skin fibroblast cell models
# From the text: (§1) Total cellular RNA is isolated using Genelute Mammalian Total RNA Kit (Sigma-Aldrich) according to the manufacturer's instructions. […] Standard curves are constructed with serial dilutions of control sample and analyzed using ABI software. Data are normalized against a house keeping gene, 18S ribosomal RNA. Gene expression is quantified by ^ΔΔCt method where fold of induction=2^-ΔΔ[…]., Analysis of relative gene expression data using real-time quantitative PCR and the 2(-Delta Delta C(T)) Method. Methods 2001. 25, 402-408).
# UGT mRNA = UGT mRNA expression by TaqMan real-time PCR in skin fibroblast cell models
# From the text: as §1
# NQO1 mRNA = NQO1 mRNA expression by TaqMan real-time PCR in skin fibroblast cell models
# From the text: as §1
# GST (GSTA1) = experiment: GST protein expression by immunoblotting in skin fibroblast cell models; details: 24 h
# Procedure: (§2) Treated and control cells are washed twice with ice cold phosphate buffered saline (PBS) and then incubated for 30 min in the Nonidet P-40 (NP-40) buffer (20 mM Tris-HCl, pH 8, 150 mM NaCl, 10% glycerol, 1% NP-40) containing one tablet of complete mini-EDTA-free protease inhibitor cocktail (Roche) in 10 ml buffer. Cells are harvested by scraping and the homogenate is centrifuged at 13,684 g at 4° C. for 15 min. The supernatants are collected and frozen at −80° C. The protein concentrations are determined using Bradford reagent (Sigma) according to the manufacturer's instructions. 20 μg of protein lysate is resolved by 10% SDS-polyacrylamide gel and transferred onto polyvinylidenedifluoride membranes (Bio-Rad) with a semidry transfer cell (Trans-Blot; Bio-Rad). Membranes are blocked for 1 hour at room temperature or overnight at 4° C. with Marvel fat-free milk powder (5% w/v), Tween 20 (0.05%, v/v) in PBS. Proteins of interest are visualized by exposing membranes to primary antibodies in milk for 2 hours at room temperature. Dilutions of antibodies are rabbit polyclonal GSTA1, 1:2000, goat polyclonal NQO1 1:1000 and goat polyclonal UGT1A 1:1000. Following primary antibody incubation membranes are incubated with suitable HRP-conjugated secondary antibody and signals are detected using an enhanced chemiluminescence kit (GE Healthcare) according to manufacturer's instructions. β-actin level is determined as loading control and bands are visualized using Fujifilm LAS3000 Imager.
# NQO1 = NQO1 protein expression by immunoblotting in skin fibroblast cell models; details: 24 h
# Procedure: as §2
# UGT (UGT1A) = experiment: UGT protein expression by immunoblotting in skin fibroblast cell models; details: 24 h
# Procedure: as §2
# [1] = 1 month old cell model, 5, 10, 20 μM
# [2] = 1 month old cell model, control=1
# [3] = adult cell model, highest concentration (20 μM), control=1
# [4] = cell model, all concentrations tested
Compound,upregulation of GST mRNA compared to control (GST mRNA; [2]) [fold],"GST mRNA expression relative to control (GST mRNA; adult cell model, 5, 10, 20 μM)","UGT mRNA expression relative to control (UGT mRNA; adult cell model, 5, 10, 20 μM)",NQO1 mRNA expression relative to control (NQO1 mRNA; [1]),"GST protein expression (immunoblot, ratio to beta-actin) (GST (GSTA1); adult cell model, 5, 10, 20 μM)","NQO1 protein expression (immunoblot, ratio to beta-actin) (NQO1; adult cell model, higher dose)",GST mRNA expression relative to control (GST mRNA; infant cell models),"NQO1 mRNA expression relative to control (NQO1 mRNA; adult cell model, 5, 10, 20 μM)",NQO1 mRNA expression relative to control (NQO1 mRNA; infant cell models),"GST protein expression (immunoblot, ratio to beta-actin) (GST (GSTA1); cell model, higher doses)","UGT protein expression (immunoblot, ratio to beta-actin) (UGT (UGT1A); cell model, higher doses)","NQO1 protein expression (immunoblot, ratio to beta-actin) (NQO1; cell model, higher doses)",other results
O=c1c(O)c(-c2ccc(O)c(O)c2)oc2cc(O)cc(O)c12 [quercetin],3.9,significant dose-dependent increase,significant dose-dependent increase,significantly increased,increases,significant upregulation,–,–,–,–,–,–,GST mRNA expression relative to control (GST mRNA; [1]): significantly increased; upregulation of GST mRNA (GST mRNA; [3]): 7.4 fold; GST mRNA expression relative to control (GST mRNA; [4]): do not demonstrate any significant changes; upregulation of UGT mRNA (UGT mRNA; [3]): 5.5 fold; UGT mRNA expression relative to control (UGT mRNA; [4]): do not demonstrate any significant changes; upregulation of NQO1 mRNA compared to control (NQO1 mRNA; [2]): 7.2 fold; NQO1 mRNA expression relative to control (NQO1 mRNA; [4]): do not demonstrate any significant changes
"C[S+]([O-])CCCCN=C=S (stereo not drawn) [sulforaphane, 4-methylsulfinylbutyl isothiocyanate]",–,significant increase,significant increase,–,–,–,significantly increased; also recorded: significant increases,significant increase,significant increases,significantly upregulated,significantly upregulated,significantly upregulated,"increase in NQO1 mRNA compared to control (NQO1 mRNA; infant cell models, control=1): 6-35 fold; UGT protein expression (immunoblot, ratio to beta-actin) (UGT (UGT1A); [1]): significant induction; UGT protein expression (immunoblot, ratio to beta-actin) (UGT (UGT1A); adult cell model, 5, 10, 20 μM): affected; NQO1 protein expression (immunoblot, ratio to beta-actin) (NQO1; adult cell model, 5, 10, 20 μM): significant upregulation"
catechin,3.7,dose-response upregulation,an increase,unaffected,increases,significant upregulation,significant increases,dose-response upregulation,significant increases,significantly upregulated,significantly upregulated,significantly upregulated,"UGT mRNA expression relative to control (UGT mRNA; [1]): unaffected; increase in NQO1 mRNA expression (NQO1 mRNA; cell model, control=1): 4.5 fold"
